Measured values: publication PMC11240139, “Exploring the antitumor potential of novel quinoline derivatives via tubulin polymerization inhibition in breast cancer; design, synthesis and molecular docking” (RSC Advances, 2024)

Assays:
Experiment in all cases: NCI-60 SRB cytotoxicity screen
Assay type in all cases: cell-based
HL-60(TB) (leukemia) = tested on: HL-60(TB) (leukemia)
MOLT-4 (leukemia) = tested on: MOLT-4 (leukemia)
[1] = tested on: HOP-92 (non-small cell lung cancer)
[2] = tested on: NCI-H226 (non-small cell lung cancer)
[3] = tested on: NCI-H23 (non-small cell lung cancer)
[4] = tested on: NCI-H322M (non-small cell lung cancer)
[5] = tested on: NCI-H460 (non-small cell lung cancer)
HCC-2998 (colon cancer) = tested on: HCC-2998 (colon cancer)
HCT-116 (colon cancer) = tested on: HCT-116 (colon cancer)
HT29 (colon cancer) = tested on: HT29 (colon cancer)
SW-620 (colon cancer) = tested on: SW-620 (colon cancer)
SF-539 (CNS cancer) = tested on: SF-539 (CNS cancer)
SNB-19 (CNS cancer) = tested on: SNB-19 (CNS cancer)
U251 (CNS cancer) = tested on: U251 (CNS cancer)
M14 (melanoma) = tested on: M14 (melanoma)
MDA-MB-435 (melanoma) = conditions: Homo sapiens
[6] = Homo sapiens, single dose 10 μM, read-out: growth inhibition (GI%)
[7] = Homo sapiens, HOP-92, five-dose assay
[8] = Homo sapiens, NCI-H226, five-dose assay
[9] = Homo sapiens, NCI-H23, five-dose assay
[10] = Homo sapiens, NCI-H460, five-dose assay
[11] = Homo sapiens, HCC-2998, five-dose assay
[12] = Homo sapiens, HCT-116, five-dose assay
[13] = Homo sapiens, SW-620, five-dose assay
[14] = Homo sapiens, SF-539, five-dose assay
[15] = Homo sapiens, SNB-19, five-dose assay
[16] = Homo sapiens, U-251, U251, five-dose assay
[17] = Homo sapiens, M14, five-dose assay

CCc1cccc2cc(-c3cc(-c4cc(OC)c(OC)c(OC)c4)[nH]c(=O)c3C#N)c(Cl)nc12 [Compound 4c, 4-(2-Chloro-8-ethylquinolin-3-yl)-2-oxo-6-(3,4,5-trimethoxyphenyl)-1,2-dihydropyridine-3-carbonitrile]
GI50 (HL-60(TB) (leukemia); Homo sapiens, five-dose assay): 13.4 µM
LC50 (HL-60(TB) (leukemia); Homo sapiens, five-dose assay): > 100 µM
inhibition at 10 µM (HL-60(TB) (leukemia); [6]): 71.3%
TGI (HL-60(TB) (leukemia); five-dose assay): >100 µM
GI50 (MOLT-4 (leukemia); Homo sapiens, MOLT-4, five-dose assay): 8.17 µM
CC50 (MOLT-4 (leukemia); Homo sapiens, MOLT-4, five-dose assay, read-out: LC50 (the source's name)): > 100 µM
inhibition at 10 µM (MOLT-4 (leukemia); Homo sapiens, MOLT-4, single dose 10 μM, read-out: growth inhibition (GI%)): 76.4%
TGI (MOLT-4 (leukemia); MOLT-4, five-dose assay): 79.90 µM
TGI ([1]; HOP-92, five-dose assay): 9.68 µM
growth inhibition (GI%) ([1]; HOP-92, single dose 10 μM): lethal effect
GI50 [1, 7]: 2.37 µM
LC50 (lethal concentration 50) [1, 7]: > 100 µM
inhibition at 10 µM ([1]; Homo sapiens, HOP-92, single dose 10 μM, read-out: growth inhibition (GI%)): > 100%
GI50 [2, 8]: 10.9 µM
LC50 (lethal concentration, 50% cell kill) [2, 8]: 97.7 µM
inhibition at 10 µM ([2]; Homo sapiens, NCI-H226, single dose 10 μM, read-out: growth inhibition (GI%)): > 100%
TGI ([2]; NCI-H226, five-dose assay): 32.60 µM
growth inhibition (GI%) ([2]; NCI-H226, single dose 10 μM): lethal effect
GI50 [3, 9]: 3.2 µM
LC50 (concentration killing 50% of cells) [3, 9]: > 100 µM
inhibition at 10 µM ([3]; Homo sapiens, NCI-H23, single dose 10 μM, read-out: growth inhibition (GI%)): 68.6%
TGI ([3]; NCI-H23, five-dose assay): >100 µM
GI50 ([4]; Homo sapiens, five-dose assay): 10.5 µM
LC50 (concentration causing 50% net cell kill) ([4]; Homo sapiens, five-dose assay): > 100 µM
inhibition at 10 µM [4, 6]: 53.7%
TGI ([4]; five-dose assay): >100 µM
GI50 [5, 10]: 16.1 µM
LC50 (50% lethal concentration) [5, 10]: > 100 µM
inhibition at 10 µM ([5]; Homo sapiens, NCI-H460, single dose 10 μM, read-out: growth inhibition (GI%)): 58.6%
TGI ([5]; NCI-H460, five-dose assay): 41.80 µM
TGI (HCC-2998 (colon cancer); HCC-2998, five-dose assay): >100 µM
GI50 (HCC-2998 (colon cancer); [11]): 35.7 µM
LC50 (50% lethal concentration) (HCC-2998 (colon cancer); [11]): > 100 µM
inhibition at 10 µM (HCC-2998 (colon cancer); Homo sapiens, HCC-2998, single dose 10 μM, read-out: growth inhibition (GI%)): 47%
TGI (HCT-116 (colon cancer); HCT-116, five-dose assay): 33.30 µM
GI50 (HCT-116 (colon cancer); [12]): 14.1 µM
LC50 (HCT-116 (colon cancer); [12]): 78.4 µM
inhibition at 10 µM (HCT-116 (colon cancer); Homo sapiens, HCT-116, single dose 10 μM, read-out: growth inhibition (GI%)): 69.1%
TGI (HT29 (colon cancer); HT29, five-dose assay): >100 µM
GI50 (HT29 (colon cancer); Homo sapiens, HT-29, HT29, five-dose assay): 32.1 µM
CC50 (HT29 (colon cancer); Homo sapiens, HT-29, HT29, five-dose assay, read-out: LC50 (the source's name)): > 100 µM
inhibition at 10 µM (HT29 (colon cancer); Homo sapiens, HT-29, HT29, single dose 10 μM, read-out: growth inhibition (GI%)): < 10%
GI50 (SW-620 (colon cancer); [13]): 27.5 µM
LC50 (lethal concentration, 50% net cell kill) (SW-620 (colon cancer); [13]): > 100 µM
inhibition at 10 µM (SW-620 (colon cancer); Homo sapiens, SW-620, single dose 10 μM, read-out: growth inhibition (GI%)): 17.4%
TGI (SW-620 (colon cancer); SW-620, five-dose assay): >100 µM
GI50 (SF-539 (CNS cancer); [14]): 12 µM
LC50 (50% lethal concentration) (SF-539 (CNS cancer); [14]): 51.3 µM
inhibition at 10 µM (SF-539 (CNS cancer); Homo sapiens, SF-539, single dose 10 μM, read-out: growth inhibition (GI%)): > 100%
TGI (SF-539 (CNS cancer); SF-539, five-dose assay): 24.80 µM
growth inhibition (GI%) (SF-539 (CNS cancer); SF-539, single dose 10 μM): lethal effect
GI50 (SNB-19 (CNS cancer); [15]): 9.25 µM
LC50 (50% lethal concentration) (SNB-19 (CNS cancer); [15]): > 100 µM
inhibition at 10 µM (SNB-19 (CNS cancer); Homo sapiens, SNB-19, single dose 10 μM, read-out: growth inhibition (GI%)): 89.6%
TGI (SNB-19 (CNS cancer); SNB-19, five-dose assay): 50.90 µM
GI50 (U251 (CNS cancer); [16]): 10.8 µM
LC50 (concentration killing 50% of cells) (U251 (CNS cancer); [16]): 74.9 µM
inhibition at 10 µM (U251 (CNS cancer); Homo sapiens, U-251, U251, single dose 10 μM, read-out: growth inhibition (GI%)): > 100%
TGI (U251 (CNS cancer); U251, five-dose assay): 28.40 µM
growth inhibition (GI%) (U251 (CNS cancer); U251, single dose 10 μM): lethal effect
GI50 (M14 (melanoma); [17]): 29.7 µM
LC50 (M14 (melanoma); [17]): > 100 µM
inhibition at 10 µM (M14 (melanoma); Homo sapiens, M14, single dose 10 μM, read-out: growth inhibition (GI%)): 42.8%
TGI (M14 (melanoma); M14, five-dose assay): >100 µM
GI50 (MDA-MB-435 (melanoma); MDA-MB-435): 32.6 µM
inhibition at 10 µM (MDA-MB-435 (melanoma); MDA-MB-435, read-out: growth inhibition (GI%)): 56.5%
